Assay results as given in publication PMC4508061, “Selectivity Profiling and Biological Activity of Novel β-Carbolines as Potent and Selective DYRK1 Kinase Inhibitors” (PLoS ONE, 2015).

Legend:
Test in all cases: ProQinase radiometric kinase panel
Conditions in all cases: mean of 2 exp.
ACV-R2B = ACV-R2B (Homo sapiens, UniProt Q13705)
ACV-RL1 = ACV-RL1 (Homo sapiens, UniProt P37023)
Aurora-A = Aurora-A (Homo sapiens, UniProt O14965)
BLK = BLK (Homo sapiens, UniProt P51451)
CDK2/CycE1 = CDK2/CycE1 (Homo sapiens, UniProt P24941)
CDK4/CycD1 = CDK4/CycD1 (Homo sapiens, UniProt P11802)
CDK6/CycD1 = CDK6/CycD1 (Homo sapiens, UniProt Q00534)
CK1-alpha1 = CK1-alpha1 (Homo sapiens, UniProt P48729)
CK1-gamma2 = CK1-gamma2 (Homo sapiens, UniProt P78368)
CK1-gamma3 = CK1-gamma3 (Homo sapiens, UniProt Q9Y6M4)
CSK = CSK (Homo sapiens, UniProt P41240)
DAPK1 = DAPK1 (Homo sapiens, UniProt P53355)
DDR2 = DDR2 (Homo sapiens, UniProt Q16832)
EPHA2 = EPHA2 (Homo sapiens, UniProt P29317)
ERBB2 = ERBB2 (Homo sapiens, UniProt P04626)
FGF-R3 = FGF-R3 (Homo sapiens, UniProt P22607)
FGF-R4 = FGF-R4 (Homo sapiens, UniProt P22455)
GSG2 (Haspin) = GSG2 (Haspin) (Homo sapiens, UniProt Q8TF76)
HIPK2 = HIPK2 (Homo sapiens, UniProt Q9H2X6)
MAPKAPK2 = MAPKAPK2 (Homo sapiens, UniProt P49137)
MAPKAPK5 = MAPKAPK5 (Homo sapiens, UniProt Q8IW41)
MEK2 = MEK2 (Homo sapiens, UniProt P36507)
MINK1 = MINK1 (Homo sapiens, UniProt Q8N4C8)
MKK6 (S207D/T211D) = MKK6 (S207D/T211D) (Homo sapiens, UniProt P52564, S207D/T211D)
MYLK = MYLK (Homo sapiens, UniProt Q15746)
p38-alpha = p38-alpha (Homo sapiens, UniProt Q16539)
PHKG1 = PHKG1 (Homo sapiens, UniProt Q16816)
PKA = PKA (Homo sapiens, UniProt P17612)
PKC-beta2 = PKC-beta2 (Homo sapiens, UniProt P05771)
PKC-mu = PKC-mu (Homo sapiens, UniProt Q15139)
PRK1 = PRK1 (Homo sapiens, UniProt Q16512)
PRKG2 = PRKG2 (Homo sapiens, UniProt Q13237)
RAF1 (Y340D/Y341D) = RAF1 (Y340D/Y341D) (Homo sapiens, UniProt P04049, Y340D/Y341D)
RIPK2 = RIPK2 (Homo sapiens, UniProt O43353)
RIPK5 = RIPK5 (Homo sapiens, UniProt Q6XUX3)
SGK1 = SGK1 (Homo sapiens, UniProt O00141)
SGK3 = SGK3 (Homo sapiens, UniProt Q96BR1)
VRK1 = VRK1 (Homo sapiens, UniProt Q99986)
ZAK = ZAK (Homo sapiens, UniProt Q9NYL2)

Chain of HIPK2 (Q9H2X6 whole entry): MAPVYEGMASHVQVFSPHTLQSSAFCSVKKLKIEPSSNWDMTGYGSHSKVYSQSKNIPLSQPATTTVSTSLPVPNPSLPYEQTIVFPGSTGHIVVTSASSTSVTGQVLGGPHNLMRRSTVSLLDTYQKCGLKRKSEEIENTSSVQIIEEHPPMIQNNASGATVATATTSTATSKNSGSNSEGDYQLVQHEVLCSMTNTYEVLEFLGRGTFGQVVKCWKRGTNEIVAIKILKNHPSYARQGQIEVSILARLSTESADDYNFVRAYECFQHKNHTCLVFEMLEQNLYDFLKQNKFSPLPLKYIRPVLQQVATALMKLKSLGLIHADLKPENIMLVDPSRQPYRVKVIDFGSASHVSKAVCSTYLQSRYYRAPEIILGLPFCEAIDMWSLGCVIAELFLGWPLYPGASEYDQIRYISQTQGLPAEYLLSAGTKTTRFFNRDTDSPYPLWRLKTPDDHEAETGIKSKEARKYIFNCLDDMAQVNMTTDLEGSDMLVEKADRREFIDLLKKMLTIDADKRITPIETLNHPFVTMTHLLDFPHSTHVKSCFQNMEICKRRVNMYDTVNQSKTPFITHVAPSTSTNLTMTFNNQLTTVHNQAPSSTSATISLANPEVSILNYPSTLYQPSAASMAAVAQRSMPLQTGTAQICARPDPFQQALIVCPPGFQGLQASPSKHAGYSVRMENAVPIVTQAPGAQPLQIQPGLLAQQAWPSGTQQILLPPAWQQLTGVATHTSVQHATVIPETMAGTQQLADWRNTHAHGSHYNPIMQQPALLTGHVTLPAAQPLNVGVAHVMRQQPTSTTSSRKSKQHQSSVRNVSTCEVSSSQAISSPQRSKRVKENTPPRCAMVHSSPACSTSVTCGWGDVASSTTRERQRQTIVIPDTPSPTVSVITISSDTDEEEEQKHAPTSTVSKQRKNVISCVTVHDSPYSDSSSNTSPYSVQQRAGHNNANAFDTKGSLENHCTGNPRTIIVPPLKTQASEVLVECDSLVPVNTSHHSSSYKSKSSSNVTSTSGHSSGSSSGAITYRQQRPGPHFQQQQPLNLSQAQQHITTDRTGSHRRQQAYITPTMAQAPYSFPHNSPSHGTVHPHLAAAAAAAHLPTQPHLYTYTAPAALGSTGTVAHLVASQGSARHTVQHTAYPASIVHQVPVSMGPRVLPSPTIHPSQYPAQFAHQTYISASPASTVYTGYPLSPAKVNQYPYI
Chain of PKC-beta2 (P05771 1-673 isoform P05771-2): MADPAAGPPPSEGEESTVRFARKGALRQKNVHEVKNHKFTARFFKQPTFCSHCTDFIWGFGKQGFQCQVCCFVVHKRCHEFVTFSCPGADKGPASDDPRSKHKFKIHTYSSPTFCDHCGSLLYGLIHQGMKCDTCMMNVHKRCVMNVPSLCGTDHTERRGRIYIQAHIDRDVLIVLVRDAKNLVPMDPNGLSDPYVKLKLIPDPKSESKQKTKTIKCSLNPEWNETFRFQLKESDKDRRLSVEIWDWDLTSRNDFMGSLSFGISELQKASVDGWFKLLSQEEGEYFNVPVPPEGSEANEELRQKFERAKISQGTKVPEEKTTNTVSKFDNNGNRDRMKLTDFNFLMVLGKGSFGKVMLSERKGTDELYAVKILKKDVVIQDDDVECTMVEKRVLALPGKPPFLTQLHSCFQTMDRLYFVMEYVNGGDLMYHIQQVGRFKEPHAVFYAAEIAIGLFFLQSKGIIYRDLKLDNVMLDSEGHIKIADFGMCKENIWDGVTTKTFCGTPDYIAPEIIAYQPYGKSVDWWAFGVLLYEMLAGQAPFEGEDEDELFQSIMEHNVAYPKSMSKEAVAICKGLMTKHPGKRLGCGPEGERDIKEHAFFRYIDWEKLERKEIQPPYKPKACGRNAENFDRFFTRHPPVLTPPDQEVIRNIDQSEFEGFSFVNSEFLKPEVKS
Chain of Aurora-A (O14965 whole entry): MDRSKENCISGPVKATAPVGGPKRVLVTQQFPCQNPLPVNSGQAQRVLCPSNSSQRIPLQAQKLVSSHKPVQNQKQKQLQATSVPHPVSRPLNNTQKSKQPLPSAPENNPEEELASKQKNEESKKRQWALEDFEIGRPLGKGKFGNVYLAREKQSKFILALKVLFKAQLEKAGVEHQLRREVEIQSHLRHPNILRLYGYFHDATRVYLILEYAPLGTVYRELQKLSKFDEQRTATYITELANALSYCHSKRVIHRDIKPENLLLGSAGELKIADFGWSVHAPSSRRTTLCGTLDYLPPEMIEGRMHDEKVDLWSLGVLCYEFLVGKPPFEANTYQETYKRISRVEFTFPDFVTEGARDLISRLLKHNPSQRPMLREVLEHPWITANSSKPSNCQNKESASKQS
Chain of VRK1 (Q99986 whole entry): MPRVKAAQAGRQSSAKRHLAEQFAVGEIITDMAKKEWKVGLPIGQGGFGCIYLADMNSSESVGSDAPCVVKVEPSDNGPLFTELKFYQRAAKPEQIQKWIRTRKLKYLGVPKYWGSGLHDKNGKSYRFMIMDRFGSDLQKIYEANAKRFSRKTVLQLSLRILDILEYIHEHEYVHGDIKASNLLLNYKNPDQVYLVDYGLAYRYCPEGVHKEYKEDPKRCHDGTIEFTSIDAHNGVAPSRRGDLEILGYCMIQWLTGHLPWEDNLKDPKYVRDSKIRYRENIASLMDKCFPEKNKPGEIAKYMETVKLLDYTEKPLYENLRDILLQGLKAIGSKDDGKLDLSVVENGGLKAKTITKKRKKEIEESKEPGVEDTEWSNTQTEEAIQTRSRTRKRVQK
Chain of MEK2 (P36507 whole entry): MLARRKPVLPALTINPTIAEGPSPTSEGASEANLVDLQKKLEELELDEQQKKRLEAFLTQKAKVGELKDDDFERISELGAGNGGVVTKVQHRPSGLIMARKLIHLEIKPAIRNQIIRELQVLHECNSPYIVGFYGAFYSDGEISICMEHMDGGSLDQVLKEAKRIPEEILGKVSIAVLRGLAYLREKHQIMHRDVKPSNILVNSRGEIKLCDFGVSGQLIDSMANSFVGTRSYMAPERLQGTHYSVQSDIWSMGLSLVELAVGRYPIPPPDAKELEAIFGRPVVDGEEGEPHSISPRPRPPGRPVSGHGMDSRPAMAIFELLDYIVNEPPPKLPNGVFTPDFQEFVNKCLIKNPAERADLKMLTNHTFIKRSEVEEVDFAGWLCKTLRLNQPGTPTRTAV
Chain of EPHA2 (P29317 24-976): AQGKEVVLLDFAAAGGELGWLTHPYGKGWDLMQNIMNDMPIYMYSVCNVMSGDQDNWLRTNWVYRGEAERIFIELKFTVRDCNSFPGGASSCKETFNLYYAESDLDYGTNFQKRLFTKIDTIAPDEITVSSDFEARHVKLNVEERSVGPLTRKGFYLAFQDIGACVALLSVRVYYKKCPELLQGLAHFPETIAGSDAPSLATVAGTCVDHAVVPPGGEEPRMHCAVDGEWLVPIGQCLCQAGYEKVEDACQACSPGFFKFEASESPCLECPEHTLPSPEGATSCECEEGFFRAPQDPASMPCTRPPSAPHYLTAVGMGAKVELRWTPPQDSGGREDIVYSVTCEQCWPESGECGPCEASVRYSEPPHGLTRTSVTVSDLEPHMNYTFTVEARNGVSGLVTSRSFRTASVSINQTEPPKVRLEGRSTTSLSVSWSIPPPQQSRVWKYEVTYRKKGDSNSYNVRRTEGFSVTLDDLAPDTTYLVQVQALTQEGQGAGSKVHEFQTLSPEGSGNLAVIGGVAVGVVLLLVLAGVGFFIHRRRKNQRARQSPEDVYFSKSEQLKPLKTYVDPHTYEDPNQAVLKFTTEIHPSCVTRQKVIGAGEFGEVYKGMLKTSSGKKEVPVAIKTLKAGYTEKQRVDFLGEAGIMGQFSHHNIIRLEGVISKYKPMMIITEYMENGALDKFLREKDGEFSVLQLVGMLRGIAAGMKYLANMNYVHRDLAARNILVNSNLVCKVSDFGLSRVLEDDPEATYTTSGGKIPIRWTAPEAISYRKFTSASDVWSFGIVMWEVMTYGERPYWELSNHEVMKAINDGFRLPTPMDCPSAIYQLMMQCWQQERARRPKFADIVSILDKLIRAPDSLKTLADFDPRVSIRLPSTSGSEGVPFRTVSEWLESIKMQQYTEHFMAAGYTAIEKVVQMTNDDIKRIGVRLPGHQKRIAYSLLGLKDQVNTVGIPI
Chain of MKK6 (S207D/T211D) (P52564 whole entry S207D/T211D): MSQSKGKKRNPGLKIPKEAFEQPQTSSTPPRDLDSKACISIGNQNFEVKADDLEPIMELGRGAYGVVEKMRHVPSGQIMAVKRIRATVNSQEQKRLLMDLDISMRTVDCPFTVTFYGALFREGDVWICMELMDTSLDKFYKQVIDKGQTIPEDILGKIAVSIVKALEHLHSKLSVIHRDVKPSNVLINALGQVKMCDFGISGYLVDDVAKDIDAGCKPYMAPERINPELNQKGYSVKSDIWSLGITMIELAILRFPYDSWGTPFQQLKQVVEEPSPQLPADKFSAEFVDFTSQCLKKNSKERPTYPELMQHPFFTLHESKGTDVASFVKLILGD
Chain of p38-alpha (Q16539 whole entry): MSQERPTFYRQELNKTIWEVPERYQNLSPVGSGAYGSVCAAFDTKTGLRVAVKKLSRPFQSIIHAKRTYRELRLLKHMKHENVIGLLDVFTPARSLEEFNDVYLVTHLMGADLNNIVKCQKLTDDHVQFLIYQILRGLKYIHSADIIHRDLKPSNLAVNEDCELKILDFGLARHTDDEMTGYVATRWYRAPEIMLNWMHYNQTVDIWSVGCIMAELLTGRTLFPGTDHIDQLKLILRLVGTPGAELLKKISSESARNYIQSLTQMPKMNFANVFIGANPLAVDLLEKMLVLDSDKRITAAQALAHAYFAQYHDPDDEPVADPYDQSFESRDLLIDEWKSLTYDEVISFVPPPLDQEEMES

In the case of `COc1ccc2c3ccnc(Cl)c3n(CC#N)c2c1` [AnnH75], the “residual activity at 1 µM, Mean” value (ACV-R2B) is reported as 97 % of control, the “residual activity at 1 µM, Mean” value (ACV-RL1) is reported as 91 % of control and the “residual activity at 1 µM, Mean” value (Aurora-A) is reported as 89 % of control. For the same compound, the “residual activity at 1 µM, Mean” value (BLK) was 100 % of control, the “residual activity at 1 µM, Mean” value (CDK2/CycE1) was 97 % of control and the “residual activity at 1 µM, Mean” value (CDK4/CycD1) was 100 % of control. For the same compound, the “residual activity at 1 µM, Mean” value (CDK6/CycD1) was 95 % of control, the “residual activity at 1 µM, Mean” value (CK1-alpha1) was 90 % of control and the “residual activity at 1 µM, Mean” value (CK1-gamma2) was 82 % of control. The “residual activity at 1 µM, Mean” value (CK1-gamma3) was 93 % of control, the “residual activity at 1 µM, Mean” value (CSK) was 94 % of control and the “residual activity at 1 µM, Mean” value (DAPK1) was 91 % of control. For the same compound, the “residual activity at 1 µM, Mean” value (DDR2) was 97 % of control, the “residual activity at 1 µM, Mean” value (EPHA2) was 93 % of control and the “residual activity at 1 µM, Mean” value (ERBB2) was 102 % of control. The “residual activity at 1 µM, Mean” value (FGF-R3) was 107 % of control, the “residual activity at 1 µM, Mean” value (FGF-R4) was 98 % of control and the “residual activity at 1 µM, Mean” value (GSG2 (Haspin)) was 5 % of control. The “residual activity at 1 µM, Mean” value (HIPK2) was 87 % of control, the “residual activity at 1 µM, Mean” value (MAPKAPK2) was 85 % of control and the “residual activity at 1 µM, Mean” value (MAPKAPK5) was 89 % of control. The “residual activity at 1 µM, Mean” value (MEK2) was 37 % of control, the “residual activity at 1 µM, Mean” value (MINK1) was 92 % of control and the “residual activity at 1 µM, Mean” value (MKK6 (S207D/T211D)) was 100 % of control. For the same compound, the “residual activity at 1 µM, Mean” value (MYLK) was 92 % of control, the “residual activity at 1 µM, Mean” value (p38-alpha) was 86 % of control and the “residual activity at 1 µM, Mean” value (PHKG1) was 91 % of control. The “residual activity at 1 µM, Mean” value (PKA) was 105 % of control, the “residual activity at 1 µM, Mean” value (PKC-beta2) was 108 % of control and the “residual activity at 1 µM, Mean” value (PKC-mu) was 100 % of control. For the same compound, the “residual activity at 1 µM, Mean” value (PRK1) was 94 % of control, the “residual activity at 1 µM, Mean” value (PRKG2) was 85 % of control and the “residual activity at 1 µM, Mean” value (RAF1 (Y340D/Y341D)) was 99 % of control. The “residual activity at 1 µM, Mean” value (RIPK2) was 94 % of control, the “residual activity at 1 µM, Mean” value (RIPK5) was 91 % of control and the “residual activity at 1 µM, Mean” value (SGK1) was 91 % of control. For the same compound, the “residual activity at 1 µM, Mean” value (SGK3) was 108 % of control, the “residual activity at 1 µM, Mean” value (VRK1) was 89 % of control and the “residual activity at 1 µM, Mean” value (ZAK) was 94 % of control.
